Test results taken from patent US20150158870A1, “POLYMORPHS OF 7-(TERT-BUTYL-D9)-3-(2,5-DIFLUOROPHENYL)-6-((1-METHYL-1H-1,2,4-TRIAZOL-5-YL)METHOXY)-[1,2,4]TRIAZOLO[4,3-B]PYRIDAZINE” (Concert Pharmaceuticals Inc., priority 2012, published 2015).

Legend:
Assay type in all cases: physicochemical
[1] = Milling at -196° C. and recrystallization
Text: (§1) Form 1 is a non-solvated, non-hygroscopic crystal.

[2] = Dynamic Vapor Sorption (DVS) analysis; details: for weight gained in DVS analysis: between 0-90% relative humidity, 25° C.
Description: Dynamic Vapor Sorption (DVS). DVS experiments were conducted on a Surface Measurement Systems DVS-HT at 25° C. The instrument was operated in step mode and the relative humidity was increased in 10% RH increments from 40% RH to 90% RH, then decreased from 90% RH to 0% RH, then increased from 0% RH to 90% RH, then decreased from 90% RH to 0% RH. An extra step at 75% RH was included in each cycle. The mass equilibrium criterion was set at 0.005% change in mass over time (dm/dt) prior to each humidity level. A minimum step time of 10 minutes and a maximum step time of 240 minutes were specified.

[3] = Stability of Form 1 to physical and chemical manipulation (Example 3)
Description: Form 1 is stable to lyophilization when initially dissolved in a 50:50 mixture of DMC:ACN.
A saturated solution of Form 1 in any of MeOH, ACN, acetone, DCM, TFE, or 1,4-dioxane is stable to evaporation over 3.5 hours at 30° C. under reduced pressure.
A saturated solution of Form 1 in any of MeOH, THF, MeOAc, Toluene, or EtOH in 1 vol % Heptane is stable after heating to 50° C., filtering the solution and rapidly cooling to 5° C.
A suspension of Form 1 in any of DMSO, n-BuOH, 2-Methoxyethanol, IPA, EtOH, Nitromethane, DMC, n-PrOH, ACN, Acetone, 2-Butanone, EtOAc, THF, EtOH in 5 vol % Toluene, MeOAc, or EtOH in 5 vol % MeOH is stable after cycling temperature between 5 and 40° C. for >48 hrs with constant stirring.
Form 1 was also stable to exposure to 75% relative humidity or to high pressure (10 kPSi).
A saturated solution of Form 1 in any of n-PrOH, ACN, Acetone, 2-Butanone, EtOAc, THF, EtOH in 5 vol % Toluene, MeOAc, or EtOH in 5 vol % MeOH at 25° C., is stable after filtering the solution and then cooling the solution to 5° C. at a rate of 1° C./min.
A saturated solution of Form 1 in any of TFE, 2-Methoxyethanol, IPA, EtOH, Heptane, 4-Methyl-2-pentanone, cyclohexane, ACN, Acetone, 2-Butanone, EtOAc, THF, or EtOH in 5 vol % Toluene is stable to evaporation over 2-28 days under ambient conditions.

[4] = Physical (crystal form) stability on exposure to ambient conditions, relative humidity or elevated pressure; details: for crystal form change on exposure to 75% relative humidity: 75% relative humidity for five days; for crystal form change on exposure to 97% relative humidity: 97% relative humidity for 5 days
Text: as §1
Form 3 is a non-solvated and non-hygroscopic crystal.
Form 4 is a non-solvated crystal.

| Compound | time to recrystallize back to Form 1 after milling ([1]; after becoming amorphous by milling at -196° C. for 2.5 hours) [min] | solid form after milling ([1]; milled at -196° C. for 2.5 hours) | hygroscopicity of the crystal [2] | weight gained in DVS analysis [2] [% wt] | crystal form stability to exposure to water vapor ([3]; 75% relative humidity) | crystal form stability to pressing ([3]; high pressure (10 kPSi)) | crystal form stability to lyophilization ([3]; initially dissolved in a 50:50 mixture of DMC:ACN) | crystal form stability to controlled cooling ([3]; saturated solution at 25° C. in any of n-PrOH, ACN, Acetone, 2-Butanone, EtOAc, THF, EtOH in 5 vol % Toluene, MeOAc, EtOH in 5 vol % MeOH, filtered, cooled to 5° C. at 1° C./min) | crystal form stability to fast evaporation ([3]; saturated solution in any of MeOH, ACN, acetone, DCM, TFE or 1,4-dioxane, evaporation over 3.5 hours at 30° C. under reduced pressure) | crystal form stability to rapid cooling ([3]; saturated solution in any of MeOH, THF, MeOAc, Toluene or EtOH in 1 vol % Heptane, heated to 50° C., filtered, rapidly cooled to 5° C.) | crystal form stability to slow evaporation ([3]; saturated solution in any of TFE, 2-Methoxyethanol, IPA, EtOH, Heptane, 4-Methyl-2-pentanone, cyclohexane, ACN, Acetone, 2-Butanone, EtOAc, THF, EtOH in 5 vol % Toluene, evaporation over 2-28 days under ambient conditions) | crystal form stability to slurry equilibration ([3]; suspension in any of DMSO, n-BuOH, 2-Methoxyethanol, IPA, EtOH, Nitromethane, DMC, n-PrOH, ACN, Acetone, 2-Butanone, EtOAc, THF, EtOH in 5 vol % Toluene, MeOAc, EtOH in 5 vol % MeOH, cycling 5-40° C. for >48 hrs with stirring) | crystal form change on exposure to 75% relative humidity [4] | crystal form change on exposure to 97% relative humidity [4] | physical stability at ambient conditions ([4]; ambient conditions, no duration stated) | crystal form change on exposure to elevated pressures ([4]; elevated pressures (~0.35 GPa) for 3 days) | time physically stable at ambient conditions ([4]; ambient conditions) |
| --- | --- | --- | --- | --- | --- | --- | --- | --- | --- | --- | --- | --- | --- | --- | --- | --- | --- |
| [2H]C([2H])([2H])C(c1cc2nnc(-c3cc(F)ccc3F)n2nc1OCc1ncnn1C)(C([2H])([2H])[2H])C([2H])([2H])[2H] [Form 1, 7-(tert-Butyl-d9)-3-(2,5-difluorophenyl)-6-((1-methyl-1H-1,2,4-triazol-5-yl)methoxy)-[1,2,4]triazolo[4,3-b]pyridazine] | ≤ 30 | becomes amorphous | non-hygroscopic | < 0.25 | stable | stable | stable | stable | stable | stable | stable | stable | does not undergo a crystal form change | partially converts to Form 2 | physically stable | does not undergo a crystal form change |  |
| [2H]C([2H])([2H])C(c1cc2nnc(-c3cc(F)ccc3F)n2nc1OCc1ncnn1C)(C([2H])([2H])[2H])C([2H])([2H])[2H] [Form 3, 7-(tert-Butyl-d9)-3-(2,5-difluorophenyl)-6-((1-methyl-1H-1,2,4-triazol-5-yl)methoxy)-[1,2,4]triazolo[4,3-b]pyridazine] |  |  | non-hygroscopic | < 0.25 |  |  |  |  |  |  |  |  |  | does not undergo a crystal form change |  |  | at least 2 weeks |
| [2H]C([2H])([2H])C(c1cc2nnc(-c3cc(F)ccc3F)n2nc1OCc1ncnn1C)(C([2H])([2H])[2H])C([2H])([2H])[2H] [Form 4, 7-(tert-Butyl-d9)-3-(2,5-difluorophenyl)-6-((1-methyl-1H-1,2,4-triazol-5-yl)methoxy)-[1,2,4]triazolo[4,3-b]pyridazine] |  |  |  |  |  |  |  |  |  |  |  |  | does not undergo a crystal form change |  |  |  | at least 2 weeks |
